# Measured values from US11034700B2, “Substituted pyrrolidine compound and use thereof” (Takeda Pharmaceutical Company Limited, priority 2017, dated 2021).
# Molecular target: T1, human OX2 receptor (Homo sapiens, UniProt O43614)
# T1 construct: expressed in transfected cells
# T1 sequence (O43614 1-444): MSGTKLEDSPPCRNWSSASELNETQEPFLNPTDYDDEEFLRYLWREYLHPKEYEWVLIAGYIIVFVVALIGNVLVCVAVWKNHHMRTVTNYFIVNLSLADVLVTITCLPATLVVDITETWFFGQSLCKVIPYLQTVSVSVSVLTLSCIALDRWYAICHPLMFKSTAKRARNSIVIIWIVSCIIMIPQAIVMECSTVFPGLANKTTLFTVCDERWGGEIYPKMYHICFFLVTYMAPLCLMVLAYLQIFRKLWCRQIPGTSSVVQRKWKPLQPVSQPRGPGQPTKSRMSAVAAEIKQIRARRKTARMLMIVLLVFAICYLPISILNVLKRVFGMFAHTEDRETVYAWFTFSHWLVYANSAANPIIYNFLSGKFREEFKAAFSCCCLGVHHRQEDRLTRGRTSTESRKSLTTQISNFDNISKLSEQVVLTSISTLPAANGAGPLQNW
# Test: Measurement of orexin type 2 receptor agonist activity (Fluo-4 calcium fluorescence, FDSS)
# Assay type: cell-based
# Conditions: compound at 3 μM; CHO cells forcibly expressing human OX2 receptor; DMSO = 0%, orexin A (human) 10 nM = 100%
# Source text: Experimental Example 1: Obtainment of Cell Stably Expressing Human Orexin Type 2 Receptor (hOX2R)
# To obtain a cell clone stably expressing human orexin type 2 receptor, human orexin type 2 receptor cDNA was inserted into pcDNA3.1(+) plasmid vector (Invitrogen), and a plasmid DNA for expression of human orexin type 2 receptor (pcDNA3.1(+)/hOX2R) was cloned. The plasmid DNA was introduced into CHO-dhfr cell by an electroporation method, and human orexin type 2 receptor expressing clone cells were obtained by limiting dilution method by using G418 drug resistance as a selection marker.
# Experimental Example 2: Measurement of Orexin Type 2 Receptor Agonist Activity
# CHO cells forcibly expressing human OX2 receptor were seeded in each well of 384 well black transparent bottom plate (BD Falcon) at 7,500 cells/well, and cultured for one day in a 5% CO2 incubator at 37° C. After removal of the medium in the cell plate, assay buffer A containing a calcium indicator (HESS (Life Technologies), 20 mM HEPES (Life Technologies), 0.1% BSA (Wako Pure Chemical Industries, Ltd.), 2.5 μg/mL Fluo-4 AM (DOJINDO Chemical), 0.08% Pluronic F127 (DOJINDO Chemical), 1.25 mM probenecid (DOJINDO Chemical)) was added at 30 μL/well. The plate was stood for 30 min in a 5% CO2 incubator at 37° C., and further stood at room temperature for 30 min. A test compound prepared by diluting with assay buffer B (HESS, 20 mM HEPES, 0.1% BSA) was added at 10 μL/well, and the fluorescence value was measured by FDSSμCELL (Hamamatsu Photonics K.K.) every one sec for 1 min, and thereafter every two sec for 1 min 40 sec. The activity (%) of the test compound was calculated assuming that variation in the fluorescence value when DMSO was added instead of the test compound was 0% […], and variation in the fluorescence value when orexin A (human) (PEPTIDE INSTITUTE, INC.) was added at the final concentration of 10 nM was 100% […]. The activity of each compound at the concentration of 3 μM was shown below.
row,"OX2R agonist activity (3 μM, %)",SMILES
1,103%,"COc1ccc(-c2cccc(C(=O)N(C)C)c2)cc1S(=O)(=O)Nc1cccc(NC2CCN(C(=O)c3cccc(C)c3)C2)c1 (centres unmarked) [Example 1, 4′-methoxy-N,N-dimethyl-3′-((3-((1-(3-methylbenzoyl)pyrrolidin-3-yl)amino)phenyl)sulfamoyl)biphenyl-3-carboxamide]"
2,90%,"COc1ccc(-c2cccc(C(=O)N(C)C)c2)cc1S(=O)(=O)Nc1cccc(OC2CCN(C(=O)c3cccc(C)c3)C2)c1 (centres unmarked) [Example 2, 4′-methoxy-N,N-dimethyl-3′-((3-((1-(3-methylbenzoyl)pyrrolidin-3-yl)oxy)phenyl)sulfamoyl)bipheny-3-carboxamide]"
3,101%,"COc1ccc(-c2cccc(C(=O)N(C)C)c2)cc1S(=O)(=O)Nc1cccc(O[C@H]2CCN(C(=O)c3cccc(C)c3)C2)c1 [Example 6, 4′-methoxy-N,N-dimethyl-3′-((3-(((3S)-1-(3-methylbenzoyl)pyrrolidin-3-yl)oxy)phenyl)sulfamoyl)biphenyl-3-carboxamide]"
4,92%,"COc1ccc(-c2cccc(C(=O)N(C)C)c2)cc1S(=O)(=O)Nc1cccc(O[C@H]2CCN(C(=O)c3ccccc3C)C2)c1 [Example 7, 4′-methoxy-N,N-dimethyl-3′-((3-(((3S)-1-(2-methylbenzoyl)pyrrolidin-3-yl)oxy)phenyl)sulfamoyl)biphenyl-3-carboxamide]"
5,91%,"COc1ccc(-c2cccc(C(=O)N(C)C)c2)cc1S(=O)(=O)Nc1cccc(O[C@H]2CCN(C(=O)c3ccccc3N(C)C)C2)c1 [Example 9, 3′-((3-(((3S)-1-(2-(dimethylamino)benzoyl)pyrrolidin-3-yl)oxy)phenyl)sulfamoyl)-4′-methoxy-N,N-dimethylbiphenyl-3-carboxamide]"
6,106%,"COc1ccc(-c2cccc(C(=O)N(C)C)c2)cc1S(=O)(=O)Nc1cccc(O[C@H]2CCN(C(=O)c3c(C)cccc3C)C2)c1 [Example 10, 3′-((3-(((3S)-1-(2,6-dimethylbenzoyl)pyrrolidin-3-yl)oxy)phenyl)sulfamoyl)-4′-methoxy-N,N-dimethylbiphenyl-3-carboxamide]"
7,97%,"COc1ccc(-c2cccc(C(=O)N(C)C)c2)cc1S(=O)(=O)Nc1cccc(O[C@H]2CCN(C(=O)c3cnn(C)c3-c3ccccc3)C2)c1 [Example 13, 4′-methoxy-N,N-dimethyl-3′-((3-(((3S)-1-((1-methyl-5-phenyl-1H-pyrazol-4-yl)carbonyl)pyrrolidin-3-yl)oxy)phenyl)sulfamoyl)biphenyl-3-carboxamide]"
8,95%,"COc1ccc(-c2cccc(C(=O)N(C)C)c2)cc1S(=O)(=O)Nc1cccc(O[C@H]2CCN(C(=O)C3CCCCO3)C2)c1 (stereo partly drawn) [Example 14, 4′-methoxy-N,N-dimethyl-3′-((3-(((3S)-1-(tetrahydro-2H-pyran-2-ylcarbonyl)pyrrolidin-3-yl)oxy)phenyl)sulfamoyl)biphenyl-3-carboxamide]"
9,99%,"COc1ccc(-c2cccc(C(=O)N(C)C)c2)cc1S(=O)(=O)Nc1cccc(O[C@H]2CCN(C(=O)C3(c4ccccc4)CC3)C2)c1 [Example 16, 4′-methoxy-N,N-dimethyl-3′-((3-(((3S)-1-((1-phenylcyclopropyl)carbonyl)pyrrolidin-3-yl)oxy)phenyl)sulfamoyl)biphenyl-3-carboxamide]"
10,90%,"COc1ccccc1CC(=O)N1CC[C@H](Oc2cccc(NS(=O)(=O)c3cc(-c4cccc(C(=O)N(C)C)c4)ccc3OC)c2)C1 [Example 17, 4′-methoxy-3′-((3-(((3S)-1-((2-methoxyphenyl)acetyl)pyrrolidin-3-yl)oxy)phenyl)sulfamoyl)-N,N-dimethylbiphenyl-3-carboxamide]"
11,88%,"COc1ccc(-c2cccc(C(=O)N(C)C)c2)cc1S(=O)(=O)Nc1cccc(O[C@H]2CCN(C(=O)c3cccnc3C(F)(F)F)C2)c1 [Example 23, 4′-methoxy-N,N-dimethyl-3′-((3-(((3S)-1-((2-(trifluoromethyl)pyridin-3-yl)carbonyl)pyrrolidin-3-yl)oxy)phenyl)sulfamoyl)biphenyl-3-carboxamide]"
12,97%,"COc1ccc(-c2cccc(C(=O)N(C)C)c2)cc1S(=O)(=O)Nc1cccc(O[C@H]2CCN(C(=O)c3ccc(C)cc3C)C2)c1 [Example 25, 3′-((3-(((3S)-1-(2,4-dimethylbenzoyl)pyrrolidin-3-yl)oxy)phenyl)sulfamoyl)-4′-methoxy-N,N-dimethylbiphenyl-3-carboxamide]"
13,101%,"COc1ccc(-c2cccc(C(=O)N(C)C)c2)cc1S(=O)(=O)Nc1cccc(O[C@H]2CCN(C(=O)c3cccc4c3OCC4)C2)c1 [Example 28, 3′-((3-(((3S)-1-(2,3-dihydro-1-benzofuran-7-ylcarbonyl)pyrrolidin-3-yl)oxy)phenyl)sulfamoyl)-4′-methoxy-N,N-dimethylbiphenyl-3-carboxamide]"
14,98%,"COc1ccc(-c2cccc(C(=O)N(C)C)c2)cc1S(=O)(=O)Nc1cccc(O[C@H]2CCN(C(=O)c3cnn(C)c3C(F)(F)F)C2)c1 [Example 29, 4′-methoxy-N,N-dimethyl-3′-((3-(((3S)-1-((1-methyl-5-(trifluoromethyl)-1H-pyrazol-4-yl)carbonyl)pyrrolidin-3-yl)oxy)phenyl)sulfamoyl)biphenyl-3-carboxamide]"
15,89%,"COc1ccc(N2CCCCC2=O)cc1S(=O)(=O)Nc1cccc(O[C@H]2CCN(C(=O)c3c(C)cccc3C)C2)c1 [Example 30, N-(3-(((3S)-1-(2,6-dimethylbenzoyl)pyrrolidin-3-yl)oxy)phenyl)-2-methoxy-5-(2-oxopiperidin-1-yl)benzenesulfonamide]"
16,75%,"COc1ccc(N2CCOCC2)cc1S(=O)(=O)Nc1cccc(O[C@H]2CCN(C(=O)c3c(C)cccc3C)C2)c1 [Example 31, N-(3-(((3S)-1-(2,6-dimethylbenzoyl)pyrrolidin-3-yl)oxy)phenyl)-2-methoxy-5-(morpholin-4-yl)benzenesulfonamide]"
17,92%,"COc1ccc(-c2cccc(C(=O)N(C)C)c2)cc1S(=O)(=O)Nc1cccc(O[C@H]2CCN(C(=O)c3cc(C)ccc3C)C2)c1 [Example 32, 3′-((3-(((3S)-1-(2,5-dimethylbenzoyl)pyrrolidin-3-yl)oxy)phenyl)sulfamoyl)-4′-methoxy-N,N-dimethylbiphenyl-3-carboxamide]"
18,89%,"COc1ccc(C2CCCCN2C(C)=O)cc1S(=O)(=O)Nc1cccc(O[C@H]2CCN(C(=O)c3c(C)cccc3C)C2)c1 (stereo partly drawn) [Example 33, 5-(1-acetylpiperidin-2-yl)-N-(3-(((3S)-1-(2,6-dimethylbenzoyl)pyrrolidin-3-yl)oxy)phenyl)-2-methoxybenzenesulfonamide]"
19,94%,"Cc1cccc(C)c1C(=O)N1CC[C@H](Oc2cccc(NS(=O)(=O)c3cccc(-c4cccc(C(=O)N(C)C)c4)c3)c2)C1 [Example 34, 3′-((3-(((3S)-1-(2,6-dimethylbenzoyl)pyrrolidin-3-yl)oxy)phenyl)sulfamoyl)-N,N-dimethylbiphenyl-3-carboxamide]"
20,99%,"Cc1cccc(C)c1C(=O)N1CC[C@H](Oc2cccc(NS(=O)(=O)c3cc(-c4cccc(C(=O)N(C)C)c4)ccc3F)c2)C1 [Example 35, 3′-((3-(((3S)-1-(2,6-dimethylbenzoyl)pyrrolidin-3-yl)oxy)phenyl)sulfamoyl)-4′-fluoro-N,N-dimethylbiphenyl-3-carboxamide]"
